Here are results for 22 compounds from patent publication US8716303B2, “N-(hetero)aryl-pyrrolidine derivatives of pyrazol-4-yl-pyrrolo[2,3-d]pyrimidines and pyrrol-3-yl-pyrrolo[2,3-d]pyrimidines as janus kinase inhibitors” (Incyte Corporation, priority 2009, dated 2014).

Assay [1] deals with T1, human JAK1 (a.a. 837-1142) (Homo sapiens, UniProt P23458).
T1 construct: human JAK1 (a.a. 837-1142); His tag (N); made in house; host or cells: insect cells (baculovirus)
Description: In vitro JAK kinase assay (HTRF, phosphorylation of a biotinylated peptide), JAK1. Particulars: Assay Conditions 1 mM ATP. It counts as biochemical. The gist of the method: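 IC50s come from HTRF detection (Eu-Py20, SA-APC, 40 min binding) after 1 h RT reactions with 500 nM biotinylated peptide in Tris pH 7.8 buffer. ATP either 1 mM or Km-level, 90 μM for JAK1 and 30 μM for JAK2; enzymes are baculovirus-expressed His-tagged catalytic domains (JAK1 837-1142, JAK2 828-1132).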
For orientation: TR-FRET usually uses a lanthanide donor and a delayed reading to cut background.

A further assay deals with T2, Jak2 (a.a. 828-1132) (Homo sapiens, UniProt O60674).
T2 construct: Jak2 (a.a. 828-1132); His tag (N); made in house; host or cells: insect cells (baculovirus)
T2 sequence (O60674 828-1132): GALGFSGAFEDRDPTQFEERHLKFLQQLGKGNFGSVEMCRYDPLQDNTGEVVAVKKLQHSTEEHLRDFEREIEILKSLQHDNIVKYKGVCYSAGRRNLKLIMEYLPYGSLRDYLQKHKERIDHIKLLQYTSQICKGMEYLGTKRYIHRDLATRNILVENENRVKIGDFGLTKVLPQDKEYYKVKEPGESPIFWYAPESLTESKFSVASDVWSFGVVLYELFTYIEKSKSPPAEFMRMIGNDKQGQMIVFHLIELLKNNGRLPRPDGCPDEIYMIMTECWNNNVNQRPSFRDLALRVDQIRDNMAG
The assay can be described thus: In vitro JAK kinase assay (HTRF, phosphorylation of a biotinylated peptide), JAK2, reported as JAK2/JAK1 ratio. Particulars: Assay Conditions 1 mM ATP. It counts as biochemical.

Molecules are shown by their SMILES. Counter-ions that a name gives are not always drawn.

T1 sequence (P23458 849-1154): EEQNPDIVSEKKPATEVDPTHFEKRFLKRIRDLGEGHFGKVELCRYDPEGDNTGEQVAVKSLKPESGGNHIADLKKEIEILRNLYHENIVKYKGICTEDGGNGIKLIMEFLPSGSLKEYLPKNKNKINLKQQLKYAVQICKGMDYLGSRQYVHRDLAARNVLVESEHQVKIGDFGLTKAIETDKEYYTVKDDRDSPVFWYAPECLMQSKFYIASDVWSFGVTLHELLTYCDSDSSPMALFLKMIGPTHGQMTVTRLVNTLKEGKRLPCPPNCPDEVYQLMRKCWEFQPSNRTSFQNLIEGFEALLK

Compound `N#CC[C@@H]([C@H]1CCN(c2cccc(C#N)c2C#N)C1)n1cc(-c2ncnc3[nH]ccc23)cn1` [Example 49, 3-((3S)-3-{(1S)-2-cyano-1-[4-(7H-pyrrolo[2,3-d]pyrimidin-4-yl)-1H-pyrazol-1-yl]ethyl}pyrrolidin-1-yl)phthalonitrile trifluoroacetate] showed an IC50 in assay [1] of under 50 nM. Moreover, the “JAK2/JAK1 IC50 ratio” value on Jak2 (a.a. 828-1132) came to 10.2.
The like results for `N#CC[C@@H]([C@H]1CCN(c2nccc(C(F)(F)F)c2C#N)C1)n1cc(-c2ncnc3[nH]ccc23)cn1` [Example 50, 2-((3S)-3-{(1S)-2-cyano-1-[4-(7H-pyrrolo[2,3-d]pyrimidin-4-yl)-1H-pyrazol-1-yl]ethyl}pyrrolidin-1-yl)-4-(trifluoromethyl)nicotinonitrile trifluoroacetate] were, in that order, under 50 nM and 15.4.
The like results for `N#CC[C@@H]([C@H]1CCN(c2nccnc2C#N)C1)n1cc(-c2ncnc3[nH]ccc23)cn1` [Example 51, 3-((3S)-3-{(1S)-2-cyano-1-[4-(7H-pyrrolo[2,3-d]pyrimidin-4-yl)-1H-pyrazol-1-yl]ethyl}pyrrolidin-1-yl)pyrazine-2-carbonitrile trifluoroacetate] were, in that order, under 50 nM and 6.8.
The like results for `N#CCC(C1CCN(c2ccccc2C#N)C1)n1cc(-c2ncnc3[nH]ccc23)cn1` (centres unmarked) [Example 52, 2-(3-{2-cyano-1-[4-(7H-pyrrolo[2,3-d]pyrimidin-4-yl)-1H-pyrazol-1-yl]ethyl}pyrrolidin-1-yl)benzonitrile trifluoroacetate salt] were, in that order, under 50 nM and 2.
In assay [1], `Cc1cccc(N2CC[C@H]([C@H](CC#N)n3cc(-c4ncnc5[nH]ccc45)cn3)C2)c1C#N` [Example 53, 2-((3S)-3-{(1S)-2-cyano-1-[4-(7H-pyrrolo[2,3-d]pyrimidin-4-yl)-1H-pyrazol-1-yl]ethyl}pyrrolidin-1-yl)-6-methylbenzonitrile trifluoroacetate salt] gave an IC50 of under 50 nM. For the same compound, on Jak2 (a.a. 828-1132), the “JAK2/JAK1 IC50 ratio” value is recorded as over 7.7.
In turn, `N#CC[C@@H]([C@H]1CCN(c2cccc(F)c2C#N)C1)n1cc(-c2ncnc3[nH]ccc23)cn1` [Example 54, 2-((3S)-3-{(1S)-2-cyano-1-[4-(7H-pyrrolo[2,3-d]pyrimidin-4-yl)-1H pyrazol-1-yl]ethyl}pyrrolidin-1-yl) 6-fluorobenzonitrile trifluoroacetate salt] had an IC50 in assay [1] of under 50 nM. Moreover, at Jak2 (a.a. 828-1132), the “JAK2/JAK1 IC50 ratio” value was 4.6.
The like results for `COc1cccc(N2CC[C@H]([C@H](CC#N)n3cc(-c4ncnc5[nH]ccc45)cn3)C2)c1C#N` [Example 55, 2-((3S)-3-{(1S)-2-cyano-1-[4-(7H-pyrrolo[2,3-d]pyrimidin-4-yl)-1H-pyrazol-1-yl]ethyl}pyrrolidin-1-yl)-6-methoxybenzonitrile trifluoroacetate salt] were, in that order, under 50 nM and over 8.
With `N#CC[C@@H]([C@H]1CCN(c2cccc(C(F)(F)F)c2C#N)C1)n1cc(-c2ncnc3[nH]ccc23)cn1` [Example 56, 2-((3S)-3-{(1S)-2-cyano-1-[4-(7H-pyrrolo[2,3-d]pyrimidin-4-yl)-1H-pyrazol-1-yl]ethyl}pyrrolidin-1-yl)-6-(trifluoromethyl)benzonitrile trifluoroacetate salt], the IC50 in assay [1] was under 50 nM. Besides, the “JAK2/JAK1 IC50 ratio” value on Jak2 (a.a. 828-1132) is over 10.
For `N#CC[C@@H]([C@H]1CCN(c2cccc(Br)c2C#N)C1)n1cc(-c2ncnc3[nH]ccc23)cn1` [Example 57, 2-bromo-6-((3S)-3-{(1S)-2-cyano-1-[4-(7H-pyrrolo[2,3-d]pyrimidin-4-yl)-1H-pyrazol-1-yl]ethyl}pyrrolidin-1-yl)benzonitrile trifluoroacetate salt], in that order: under 50 nM and 37.
The like results for `N#CC[C@@H]([C@H]1CCN(c2c(F)cccc2C#N)C1)n1cc(-c2ncnc3[nH]ccc23)cn1` [Example 58, 2-((3S)-3-{(1S)-2-cyano-1-[4-(7H-pyrrolo[2,3-d]pyrimidin-4-yl)-1H-pyrazol-1-yl]ethyl}pyrrolidin-l-yl)-3-fluorobenzonitrile trifluoroacetate salt] were, in that order, under 50 nM and 8.
The like results for `N#CC[C@@H]([C@H]1CCN(c2c(C#N)cccc2C#N)C1)n1cc(-c2ncnc3[nH]ccc23)cn1` [Example 59, 2-((3S)-3-{(1S)-2-cyano-1-[4-(7H-pyrrolo[2,3-d]pyrimidin-4-yl)-1H-pyrazol-1-yl]ethyl}pyrrolidin-1-yl)isophthalonitrile trifluoroacetate salt] were, in that order, under 50 nM and 6.5.
With `N#CC[C@@H]([C@H]1CCN(c2ccc(F)c(F)c2C#N)C1)n1cc(-c2ncnc3[nH]ccc23)cn1` [Example 60, 6-((3S)-3-{(1S)-2-cyano-1-[4-(7H-pyrrolo[2,3-d]pyrimidin-4-yl)-1H-pyrazol-1-yl]ethyl}pyrrolidin-1-yl)-2,3-difluorobenzonitrile trifluoroacetate salt], the IC50 in assay [1] is under 50 nM. On Jak2 (a.a. 828-1132), the “JAK2/JAK1 IC50 ratio” value was determined as 6.6.
With `N#CC[C@@H]([C@H]1CCN(c2c(F)cc(F)c(F)c2C#N)C1)n1cc(-c2ncnc3[nH]ccc23)cn1` [Example 61, 2-((3S)-3-{(1S)-2-cyano-1-[4-(7H-pyrrolo[2,3-d]pyrimidin-4-yl)-1H-pyrazol-1-yl]ethyl}pyrrolidin-1-yl)-3,5,6-trifluorobenzonitrile trifluoroacetate salt], the IC50 in assay [1] is under 50 nM. Besides, the “JAK2/JAK1 IC50 ratio” value on Jak2 (a.a. 828-1132) came to 6.4.
The like results for `N#CC[C@@H]([C@H]1CCN(c2ncccc2C#N)C1)n1cc(-c2ncnc3[nH]ccc23)cn1` [Example 62, 2-((3S)-3-{(1S)-2-cyano-1-[4-(7H-pyrrolo[2,3-d]pyrimidin-4-yl)-1H-pyrazol-1-yl]ethyl}pyrrolidin-1-yl) nicotinonitrile trifluoroacetate salt] were, in that order, under 50 nM and 7.1.
The like results for `N#CC[C@@H]([C@H]1CCN(c2nc(Cl)c(C#N)cc2F)C1)n1cc(-c2ncnc3[nH]ccc23)cn1` [Example 63, 6-((S)-3-((S)-1-(4-(7H-pyrrolo[2,3-d]pyrimidin-4-yl)-1H-pyrazol-1-yl)-2-cyanoethyl)pyrrolidin-1-yl)-2-chloro-5-fluoronicotinonitrile trifluoroacetate salt] were, in that order, under 50 nM and 7.3.
The like results for `N#CC[C@@H]([C@H]1CCN(c2cncc(Cl)c2C#N)C1)n1cc(-c2ncnc3[nH]ccc23)cn1` [Example 64, 3-chloro-5-((3S)-3-{(1S)-2-cyano-1-[4-(7H-pyrrolo[2,3-d]pyrimidin-4-yl)-1H-pyrazol-1-yl]ethyl}pyrrolidin-1-yl) isonicotinonitrile trifluoroacetate salt] were, in that order, under 50 nM and 11.
In assay [1], `N#CC[C@@H]([C@H]1CCN(c2c(F)nc(F)c(F)c2C#N)C1)n1cc(-c2ncnc3[nH]ccc23)cn1` [Example 65, 3-((3S)-3-{(1S)-2-cyano-1-[4-(7H-pyrrolo[2,3-d]pyrimidin-4-yl)-1H-pyrazol-1-yl]ethyl}pyrrolidin-1-yl)-2,5,6-trifluoroisonicotinonitrile trifluoroacetate salt] had an IC50 of under 50 nM. In addition, on Jak2 (a.a. 828-1132), the “JAK2/JAK1 IC50 ratio” value is 9.4.
With `N#CC[C@@H]([C@H]1CCN(c2nccc(C(F)(F)F)c2F)C1)n1cc(-c2ncnc3[nH]ccc23)cn1` [Example 66, (3S)-3-{(3S)-1-[3-fluoro-4-(trifluoromethyl)pyridin-2-yl]pyrrolidin-3-yl}-3-[4-(7H-pyrrolo[2,3-d]pyrimidin-4-yl)-1H-pyrazol-1-yl] propanenitrile trifluoroacetate salt], the IC50 in assay [1] was under 50 nM. Besides, at Jak2 (a.a. 828-1132), the “JAK2/JAK1 IC50 ratio” value is over 20.
As to `N#CC[C@@H]([C@H]1CCN(c2nc(F)c(F)cc2F)C1)n1cc(-c2ncnc3[nH]ccc23)cn1` [Example 67, (3S)-3-[4-(7H-pyrrolo[2,3-d]pyrimidin-4-yl)-1H-pyrazol-1-yl]-3-[(3S)-1-(3,5,6-trifluoropyridin-2-yl)pyrrolidin-3-yl]propanenitrile trifluoroacetate salt], in assay [1], the IC50 is under 50 nM. Further, the “JAK2/JAK1 IC50 ratio” value on Jak2 (a.a. 828-1132) is 5.6.
The like results for `N#CC[C@@H]([C@H]1CCN(c2cccnc2C#N)C1)n1cc(-c2ncnc3[nH]ccc23)cn1` [Example 68, 3-((3S)-3-{(1S)-2-cyano-1-[4-(7H-pyrrolo[2,3-d]pyrimidin-4-yl)-1H-pyrazol-1-yl]ethyl}pyrrolidin-1-yl) pyridine-2-carbonitrile trifluoroacetate salt] were, in that order, under 50 nM and 8.2.
The like results for `N#CC[C@@H]([C@H]1CCN(c2ccc(C#N)c(Cl)n2)C1)n1cc(-c2ncnc3[nH]ccc23)cn1` [Example 69, 2-chloro-6-((3S)-3-{(1S)-2-cyano-1-[4-(7H-pyrrolo[2,3-d]pyrimidin-4-yl)-1H-pyrazol-1-yl]ethyl}pyrrolidin-1-yl)nicotinonitrile trifluoroacetate salt] were, in that order, under 50 nM and 6.5.
On to `N#CCC(C1CCN(c2ccc3cc[nH]c3n2)C1)n1cc(-c2ncnc3[nH]ccc23)cn1` (centres unmarked) [Example 73, 3-(1-(1H-pyrrolo[2,3-b]pyridin-6-yl)pyrrolidin-3-yl)-3-(4-(7H-pyrrolo[2,3-d]pyrimidin-4-yl)-1H-pyrazol-1-yl)propanenitrile trifluoroacetate], for which the IC50 in assay [1] is under 50 nM. At Jak2 (a.a. 828-1132), the “JAK2/JAK1 IC50 ratio” value stood at 1.7.

The term IC50 denotes the concentration that gives 50% inhibition. Lower therefore signals higher potency.
